According to paper PMC3463753 (Molecular pharmaceutics, 2012):

Test system: MDCK-WT, MDCK-CYP3A4 and MDCK-MDR1-CYP3A4 cells
Assay: Mannitol
Format: in vitro ADME, dog
Conditions: paracellular marker; data not shown

OC[C@@H](O)[C@@H](O)[C@H](O)[C@H](O)CO [mannitol]
Mannitol transport in MDCK-WT, MDCK-CYP3A4 and MDCK-MDR1-CYP3A4 cells: No significant difference
